Key:
[1] = target: T1, human CB1 receptor (Homo sapiens, UniProt P21554); test: bioSensAll β-arrestin plasma membrane (PM) translocation BRET biosensor (+GRK2) assay in transfected HEK293 cells, inhibition of CP-55,940 response; type: cell-based; settings: HEK293 cells transfected with hCB1 and β-arrestin PM translocation biosensor (+GRK2), test compound then EC75 of CP-55,940 (100 nM), overnight incubation, read-out: CB1 wt βarr2 EC50
T1 construct: expressed in transfected cells; host or cells: HEK293
T1 sequence (P21554 whole entry): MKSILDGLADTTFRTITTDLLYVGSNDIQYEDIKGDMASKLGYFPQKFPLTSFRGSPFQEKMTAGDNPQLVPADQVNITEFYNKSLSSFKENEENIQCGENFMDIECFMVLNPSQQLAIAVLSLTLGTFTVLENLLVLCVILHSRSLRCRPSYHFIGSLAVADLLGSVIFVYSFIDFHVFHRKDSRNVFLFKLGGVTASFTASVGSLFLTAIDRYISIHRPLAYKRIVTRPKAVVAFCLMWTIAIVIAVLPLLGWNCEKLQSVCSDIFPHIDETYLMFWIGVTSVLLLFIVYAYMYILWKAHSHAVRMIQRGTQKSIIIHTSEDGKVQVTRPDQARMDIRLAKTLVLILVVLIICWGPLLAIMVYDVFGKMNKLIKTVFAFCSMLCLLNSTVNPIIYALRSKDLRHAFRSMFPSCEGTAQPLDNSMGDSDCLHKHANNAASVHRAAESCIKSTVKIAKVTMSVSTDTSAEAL
Description: (§1) Using polyethylenimine (PEI) transfection agent, HEK293 cells were transfected in suspension with the human CB1 or CB1 b receptor and one of the following bioSensAll® assays: GAPL-Gi2, or β-arrestin plasma membrane (PM) translocation biosensor (+GRK2). Cells were directly seeded in 96-well plates immediately following transfection.
(§2) Cells were incubated with coelenterazine (luciferase substrate) and different test compounds prior to the measurement of BRET signals.
(§3) Used in this project are i) Ga plasma membrane (GAPL) biosensors and the ii) β-arrestin plasma membrane translocation biosensor. • i) GAPL sensors are used to monitor the activation of heterotrimeric G proteins at the plasma membrane upon receptor stimulation. Specifically, these multimolecular BRET sensors detect the plasma membrane recruitment of proteins that interact with active Ga subunits in a G protein family-selective manner. G protein activation following receptor stimulation generally leads to an increase in the BRET signal. • ii) The multimolecular β-arrestin membrane recruitment biosensors allow for real-time spatio-temporal monitoring of β-arrestin 1 and β-arrestin 2 following GPCR activation. Specifically, these β-arrestin sensors were designed to detect the recruitment of proteins to the plasma membrane β-arrestin PM) with localization to compartment resulting in an increased BRET signal. c) Cell Culture Conditions HEK293 cells were maintained in Dulbecco's Modified Eagle Medium (DMEM) (Wisent; cat #319-030-CL: without sodium pyruvate, with 4.5 g/L glucose, without L-glutamine) supplemented with 1% penicillin-streptomycin (Wisent; cat #450-201-EL) and 2 or 10% fetal bovine serum (Wisent cat #090150).
(§4) HEK293 cells were co-transfected with hCB1 or hCB1b and one of the above-listed bioSensAll® assays. For each transfection condition: • the total amount of transfected DNA was kept constant at 1 μg per mL of cell culture to be transfected; whenever necessary, salmon sperm DNA (Invitrogen, cat #15632011) was used as ‘carrier’ DNA to supplement plasmid DNA (i.e., biosensor and receptor); • the PEI (polyethylenimine 25 kDa linear, PolyScience, cat #23966) to DNA ratio (ug:ug) was fixed at 3:1. Transfections were Carried Out as Follows: • DNA and PEI were first diluted separately in 150 mM NaCl. The volume of the diluent in each tube corresponds to 5% of the cell culture volume to be transfected. • Once DNA and PEI were diluted, the PEI-containing solution was added to the DNA solution and the DNA/PEI mixture immediately vortexed for 5 seconds. • The DNA/PEI mixture was incubated for at least 20 minutes at room temperature to allow for the formation of DNA/PEI complexes. • During the incubation, HEK293 cells were detached, counted and re-suspended in culture medium (composition specified above). • At the end of the incubation period, the DNA/PEI mixture was added to the cells. • Cells were finally distributed in 96-well plates (White Opaque 96-well/Microplates, Greiner, cat #655083 or CulturPlate-96, White Opaque 96-well Microplate, PerkinElmer, cat #6005688) at a density of 30 000 cells per well.
(§5) • Using 450-Select TS Biotek plate washer, culture medium was aspirated and replaced with 100 μl of Hank's Balanced Salt Solution buffer (HBSS) (Wisent, cat #319-067CL: without red phenol; with sodium bicarbonate, with calcium and magnesium, with HEPES) per well. This process was performed a total of two times (i.e., 2 washes). • After the washing step, the HP D300 digital dispenser (Tecan) was used to inject increasing doses (12) of test compounds (ranging from 0-600 nM) to wells. […]

[2] = target: T1, human CB1 receptor; test: bioSensAll GAPL-Gi2 BRET biosensor assay in transfected HEK293 cells, inhibition of CP-55,940 response; type: cell-based; settings: HEK293 cells transfected with hCB1 and GAPL-Gi2 biosensor, test compound then EC75 of CP-55,940 (0.1 nM), overnight incubation, read-out: CB1 wt Gi2 EC50
Description: as §1, §2, §3, §4, §5

| SMILES | EC50 [1] | EC50 [2] |
| --- | --- | --- |
| CC(=O)NC(N)=NC(=NS(=O)(=O)c1cc(F)cc(F)c1)N1CCC(c2ccccc2)C(c2ccc(Cl)cc2)=N1 (single isomer, unassigned) [Compound 6 Isomer 2, N-[(E)-N′-[(Z)-C-[6-(4-chlorophenyl)-5-phenyl-4,5-dihydro-3H-pyridazin-2-yl]-N-(3,5-difluorophenyl)sulfonylcarbonimidoyl]carbamimidoyl]acetamide] | 2.6 nM | 0.68 nM |
| CC(=O)NC(N)=NC(=NS(=O)(=O)c1cc(F)cc(F)c1)N1CCC(c2ccccc2)C(c2ccc(Cl)cc2)=N1 (single isomer, unassigned) [Compound 6 Isomer 1, N-[(E)-N′-[(Z)-C-[6-(4-chlorophenyl)-5-phenyl-4,5-dihydro-3H-pyridazin-2-yl]-N-(3,5-difluorophenyl)sulfonylcarbonimidoyl]carbamimidoyl]acetamide] | 380 nM | 39 nM |
| CC(=O)N/C(N)=N/C(=N/S(=O)(=O)N1CCC(C(F)(F)F)CC1)N1CCC(c2ccccc2)C(c2ccc(Cl)cc2)=N1 (single isomer, unassigned) [Compound 3 Isomer 2, N-[(E)-N′-[(Z)-C-[6-(4-chlorophenyl)-5-phenyl-4,5-dihydro-3H-pyridazin-2-yl]-N-[[4-(trifluoromethyl)-1-piperidyl]sulfonyl]carbonimidoyl]carbamimidoyl]acetamide] | 1.3 nM | 0.64 nM |
| CC(=O)NC(=N)/N=C(/NS(=O)(=O)c1ccc(C(F)(F)F)cn1)N1CCC(c2ccccc2)C(c2ccc(Cl)cc2)=N1 (single isomer, unassigned) [Compound 8 Isomer 2, N-[(NE)-N-[[6-(4-chlorophenyl)-5-phenyl-4,5-dihydro-3H-pyridazin-2-yl]-[[5-(trifluoromethyl)-2-pyridyl]sulfonylamino]methylene]carbamimidoyl]acetamide] | 8.5 nM | 1.9 nM |
| CC(=O)N/C(N)=N/C(=N/S(=O)(=O)N1CCCCC1)N1CCC(c2ccccc2)C(c2ccc(Cl)cc2)=N1 (single isomer, unassigned) [Compound 2 Isomer 1, N-[(E)-N′-[(Z)-C-[6-(4-chlorophenyl)-5-phenyl-4,5-dihydro-3H-pyridazin-2-yl]-N-(1-piperidylsulfonyl)carbonimidoyl]carbamimidoyl]acetamide] | 23600 nM | 300 nM |
| CC(=O)NC(N)=NC(=NS(=O)(=O)c1ccc(Cl)cc1)N1CCC(c2ccccc2)C(c2ccc(Cl)cc2)=N1 (single isomer, unassigned) [Compound 1 Isomer 1, N-[(E)-N′-[(Z)-C-[6-(4-chlorophenyl)-5-phenyl-4,5-dihydro-3H-pyridazin-2-yl]-N-(4-chlorophenyl)sulfonylcarbonimidoyl]carbamimidoyl]acetamide] | > 30000 nM | 430 nM |
| CC(=O)N/C(N)=N/C(=N/S(=O)(=O)N1CCCC(F)(F)C1)N1CCC(c2ccccc2)C(c2ccc(Cl)cc2)=N1 (single isomer, unassigned) [Compound 5 Isomer 2, N-[(E)-N′-[(Z)-C-[6-(4-chlorophenyl)-5-phenyl-4,5-dihydro-3H-pyridazin-2-yl]-N-[(3,3-difluoro-1-piperidyl)sulfonyl]carbonimidoyl]carbamimidoyl]acetamide] | 0.72 nM | 0.43 nM |
| CC(=O)N/C(N)=N/C(=N/S(=O)(=O)N1CCCC(F)(F)C1)N1CCC(c2ccccc2)C(c2ccc(Cl)cc2)=N1 (single isomer, unassigned) [Compound 5 Isomer 1, N-[(E)-N′-[(Z)-C-[6-(4-chlorophenyl)-5-phenyl-4,5-dihydro-3H-pyridazin-2-yl]-N-[(3,3-difluoro-1-piperidyl)sulfonyl]carbonimidoyl]carbamimidoyl]acetamide] | 400 nM | 150 nM |
| CC(=O)NC(N)=NC(=NS(=O)(=O)c1ccc(Cl)cc1)N1CCC(c2ccccc2)C(c2ccc(Cl)cc2)=N1 (single isomer, unassigned) [Compound 1 Isomer 2, N-[(E)-N′-[(Z)-C-[6-(4-chlorophenyl)-5-phenyl-4,5-dihydro-3H-pyridazin-2-yl]-N-(4-chlorophenyl)sulfonylcarbonimidoyl]carbamimidoyl]acetamide] | 3.3 nM | 1.2 nM |
| CC(=O)NC(=N)/N=C(/NS(=O)(=O)c1ccc(C(F)(F)F)cn1)N1CCC(c2ccccc2)C(c2ccc(Cl)cc2)=N1 (single isomer, unassigned) [Compound 8 Isomer 1, N-[(NE)-N-[[6-(4-chlorophenyl)-5-phenyl-4,5-dihydro-3H-pyridazin-2-yl]-[[5-(trifluoromethyl)-2-pyridyl]sulfonylamino]methylene]carbamimidoyl]acetamide] | > 30000 nM | > 30000 nM |
| CC(=O)N/C(N)=N\C(=N\S(=O)(=O)c1ccc(C(F)(F)F)cc1)N1CCC(c2ccccc2)C(c2ccc(Cl)cc2)=N1 (single isomer, unassigned) [Compound 7 Isomer 2, N-[(E)-N′-[(Z)-C-[6-(4-chlorophenyl)-5-phenyl-4,5-dihydro-3H-pyridazin-2-yl]-N-[4-(trifluoromethyl)phenyl]sulfonyl-carbonimidoyl]carbamimidoyl]acetamide] | 2.1 nM | 0.42 nM |
| CC(=O)N/C(N)=N/C(=N/S(=O)(=O)N1CCCCC1)N1CCC(c2ccccc2)C(c2ccc(Cl)cc2)=N1 (single isomer, unassigned) [Compound 2 Isomer 2, N-[(E)-N′-[(Z)-C-[6-(4-chlorophenyl)-5-phenyl-4,5-dihydro-3H-pyridazin-2-yl]-N-(1-piperidylsulfonyl)carbonimidoyl]carbamimidoyl]acetamide] | 1.5 nM | 0.65 nM |
| CC(=O)N/C(N)=N\C(=N\S(=O)(=O)c1ccc(C(F)(F)F)cc1)N1CCC(c2ccccc2)C(c2ccc(Cl)cc2)=N1 (single isomer, unassigned) [Compound 7 Isomer 1, N-[(E)-N′-[(Z)-C-[6-(4-chlorophenyl)-5-phenyl-4,5-dihydro-3H-pyridazin-2-yl]-N-[4-(trifluoromethyl)phenyl]sulfonyl-carbonimidoyl]carbamimidoyl]acetamide] | 580 nM | 200 nM |
| CC(=O)N/C(N)=N/C(=N/S(=O)(=O)N1CCC(C(F)(F)F)CC1)N1CCC(c2ccccc2)C(c2ccc(Cl)cc2)=N1 (single isomer, unassigned) [Compound 3 Isomer 1, N-[(E)-N′-[(Z)-C-[6-(4-chlorophenyl)-5-phenyl-4,5-dihydro-3H-pyridazin-2-yl]-N-[[4-(trifluoromethyl)-1-piperidyl]sulfonyl]carbonimidoyl]carbamimidoyl]acetamide] | 14100 nM | 190 nM |
| CC(=O)N/C(N)=N/C(=N/S(=O)(=O)N1CCC(F)(F)CC1)N1CCC(c2ccccc2)C(c2ccc(Cl)cc2)=N1 (single isomer, unassigned) [Compound 4 Isomer 2, N-[(E)-N′-[(Z)-C-[6-(4-chlorophenyl)-5-phenyl-4,5-dihydro-3H-pyridazin-2-yl]-N-[(4,4-difluoro-1-piperidyl)sulfonyl]carbonimidoyl]carbamimidoyl]acetamide] | 1.4 nM | 0.67 nM |
| CC(=O)N/C(N)=N/C(=N/S(=O)(=O)N1CCC(F)(F)CC1)N1CCC(c2ccccc2)C(c2ccc(Cl)cc2)=N1 (single isomer, unassigned) [Compound 4 Isomer 1, N-[(E)-N′-[(Z)-C-[6-(4-chlorophenyl)-5-phenyl-4,5-dihydro-3H-pyridazin-2-yl]-N-[(4,4-difluoro-1-piperidyl)sulfonyl]carbonimidoyl]carbamimidoyl]acetamide] | > 30000 nM | > 30000 nM |
